According to ChEMBL document CHEMBL4699519, “Natural and Semisynthetic Chalcones as Dual FLT3 and Microtubule Polymerization Inhibitors” (J Nat Prod, 2020):
pIC50: −log10 of the molar value. Activity calls are given as the source filed them. The calls are words filed in the database; no cut-off is given here.

Columns and labels:
MV4-11 [1] = experiment: Antiproliferative activity against human MV4-11 cells assessed as reduction in cell viability at 25 uM after 72 hrs by MTS assay relative to control; format: functional
MV4-11 [2] = experiment: Antiproliferative activity against human MV4-11 cells assessed as reduction in cell viability at 50 uM after 72 hrs by MTS assay relative to control; format: functional
K562 [3] = experiment: Antiproliferative activity against human K562 cells assessed as reduction in cell viability at 25 uM after 72 hrs by MTS assay relative to control; format: functional
K562 [4] = experiment: Antiproliferative activity against human K562 cells assessed as reduction in cell viability at 50 uM after 72 hrs by MTS assay relative to control; format: functional
Tubulin (Homo sapiens) [5] = molecular target: T1, Tubulin (Homo sapiens) (UniProt P68371+Q9H4B7+P0DPH7+P68366+Q13509+Q71U36+P04350+Q3ZCM7+P07437+P68363+Q9BQE3+Q6PEY2+Q13885+Q9BVA1+Q9BUF5); experiment: Displacement of colchicine from tubulin (unknown origin) at 50 uM after 1 hr by fluorescence assay relative to control; format: protein-complex assay
MOLM-13 [6] = experiment: Antiproliferative activity against human MOLM-13 cells assessed as reduction in cell viability after 72 hrs by MTS assay; format: functional
MV4-11 [7] = experiment: Antiproliferative activity against human MV4-11 cells assessed as reduction in cell viability after 72 hrs by MTS assay; format: functional
THP-1 = experiment: Antiproliferative activity against human THP-1 cells assessed as reduction in cell viability after 72 hrs by MTS assay; format: functional
[8] = Selectivity ratio of GI50 for antiproliferative activity against human THP-1 cells to GI50 antiproliferative activity against human MV4-11 cells; format: functional
[9] = Selectivity ratio of GI50 for antiproliferative activity against human THP-1 cells to GI50 antiproliferative activity against human MOLM-13 cells; format: functional
[10] = tested on: Receptor-type tyrosine-protein kinase FLT3 (Homo sapiens), P36888 [UNDEFINED MUTATION]; experiment: Inhibition of FLT3 ITD mutant in human MV4-11 cells assessed as inhibition of ERK phosphorylation at 1.56 to 50 uM incubated for 2 hrs by immunoblotting analysis; format: cell-based; details: dose microM 1.56-50, time 2.0 hrs
[11] = tested on: Receptor-type tyrosine-protein kinase FLT3 (Homo sapiens), P36888 [UNDEFINED MUTATION]; experiment: Inhibition of FLT3 ITD mutant in human MV4-11 cells assessed as inhibition of STAT5 phosphorylation at 1.56 to 50 uM incubated for 2 hrs by immunoblotting analysis; format: cell-based; details: dose microM 1.56-50, time 2.0 hrs
[12] = molecular target: T2, Receptor-type tyrosine-protein kinase FLT3 (Homo sapiens, UniProt P36888); experiment: Inhibition of FLT3 (unknown origin) in presence of ATP
T2 sequence (P36888 whole entry): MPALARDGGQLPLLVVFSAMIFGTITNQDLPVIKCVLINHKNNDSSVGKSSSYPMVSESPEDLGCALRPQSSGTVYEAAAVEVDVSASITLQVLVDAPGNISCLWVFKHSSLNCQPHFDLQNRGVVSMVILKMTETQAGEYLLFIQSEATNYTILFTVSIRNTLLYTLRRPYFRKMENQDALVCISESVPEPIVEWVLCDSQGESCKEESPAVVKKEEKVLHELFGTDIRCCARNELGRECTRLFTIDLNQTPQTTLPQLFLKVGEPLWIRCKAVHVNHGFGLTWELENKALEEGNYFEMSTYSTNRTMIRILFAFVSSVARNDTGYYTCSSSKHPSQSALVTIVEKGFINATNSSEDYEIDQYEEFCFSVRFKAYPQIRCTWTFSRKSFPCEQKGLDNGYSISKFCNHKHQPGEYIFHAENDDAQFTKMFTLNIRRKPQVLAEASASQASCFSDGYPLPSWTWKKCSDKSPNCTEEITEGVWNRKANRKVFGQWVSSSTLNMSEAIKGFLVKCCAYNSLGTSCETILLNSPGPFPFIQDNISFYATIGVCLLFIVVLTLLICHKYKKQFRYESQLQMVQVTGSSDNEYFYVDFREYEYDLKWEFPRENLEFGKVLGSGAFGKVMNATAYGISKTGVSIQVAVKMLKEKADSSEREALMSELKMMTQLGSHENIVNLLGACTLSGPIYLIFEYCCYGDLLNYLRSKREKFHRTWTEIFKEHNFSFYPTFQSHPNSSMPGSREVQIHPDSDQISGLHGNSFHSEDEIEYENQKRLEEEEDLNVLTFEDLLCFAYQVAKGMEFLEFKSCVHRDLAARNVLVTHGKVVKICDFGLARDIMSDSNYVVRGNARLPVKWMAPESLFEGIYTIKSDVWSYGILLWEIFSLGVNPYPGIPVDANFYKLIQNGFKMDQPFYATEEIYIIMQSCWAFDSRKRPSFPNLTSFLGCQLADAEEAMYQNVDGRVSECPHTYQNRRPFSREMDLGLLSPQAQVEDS

Tubulin (Homo sapiens) [13] = molecular target: T1, Tubulin (Homo sapiens); experiment: Inhibition of microtubule polymerization in human HCT-116 cells assessed as increase in histone H3 phosphorylation at S10 residue at 25 uM after 8 hrs by DOT blot analysis; format: cell-based
Tubulin (Homo sapiens) [14] = molecular target: T1, Tubulin (Homo sapiens); experiment: Inhibition of microtubule polymerization in human HCT-116 cells assessed as increase in histone H3 phosphorylation at S10 residue at 0.78 uM after 8 hrs by Western blot analysis; format: cell-based
Tubulin (Homo sapiens) [15] = molecular target: T1, Tubulin (Homo sapiens); experiment: Inhibition of microtubule polymerization in human MV4-11 cells assessed as increase in histone H3 phosphorylation at S10 residue at 0.78 uM after 8 hrs by Western blot analysis; format: cell-based
Tubulin (Homo sapiens) [16] = molecular target: T1, Tubulin (Homo sapiens); experiment: Inhibition of microtubule polymerization in human MV4-11 cells assessed as increase in histone H3 phosphorylation at S10 residue at 0.35 to 2.5 uM after 24 hrs by propidium iodide staining based flow cytometric analysis; format: cell-based; details: dose microM 0.35-2.5, time 24.0 hrs
Tubulin (Homo sapiens) [17] = molecular target: T1, Tubulin (Homo sapiens); experiment: Inhibition of microtubule repolymerization in human A549 cells at 5 uM preincubated for 30 mins followed by 10 min incubation at ice cold methanol by DAPI staining based confocal microscopic method relative to control; format: cell-based; details: time 40.0 min
Tubulin (Homo sapiens) [18] = molecular target: T1, Tubulin (Homo sapiens); experiment: Inhibition of tubulin polymerization (unknown origin) measured every 30 sec for 1 hrs in presence of GTP by turbidimetric analysis; format: protein-complex assay; details: dose microM 5-25, time 1.0 hrs
Tubulin (Homo sapiens) [19] = molecular target: T1, Tubulin (Homo sapiens); experiment: Displacement of colchicine in tubulin (unknown origin) at 12.5 uM after 1 hr by fluorescence assay relative to control; format: protein-complex assay
Tubulin (Homo sapiens) [20] = molecular target: T1, Tubulin (Homo sapiens); experiment: Displacement of colchicine from tubulin (unknown origin) at 25 uM after 1 hr by fluorescence assay relative to control; format: protein-complex assay
MV4-11 [21] = experiment: Induction of apoptosis in human MV4-11 cells assessed as increase in cleaved caspase-3 level at 0.313 to 5 uM after 24 hrs by Western blot analysis; format: functional, cell-based; details: dose microM 0.313-5, time 24.0 hrs
MV4-11 [22] = experiment: Induction of apoptosis in human MV4-11 cells assessed as increase in cleaved PARP level at 0.313 to 5 uM after 24 hrs by Western blot analysis; format: functional, cell-based; details: dose microM 0.313-5, time 24.0 hrs
MV4-11 [23] = experiment: Induction of apoptosis in human MV4-11 cells at 0.31 to 2.5 uM after 24 to 48 hrs by Annexin V/prpidium iodide staining based flow cytometric analysis; format: functional, cell-based; details: dose microM 0.31-2.5, time hrs 24-48
MOLM-13 [24] = experiment: Antiproliferative activity against human MOLM-13 cells harboring D835Y mutant assessed as reduction in cell viability after 72 hrs by MTS assay; format: functional
[25] = Resistant index, ratio of GI50 for antiproliferative activity against human MOLM-13 cells harboring D835Y mutant to antiproliferative activity against human MOLM-13 cells; format: functional
[26] = tested on: Receptor-type tyrosine-protein kinase FLT3 (Homo sapiens), P36888 [UNDEFINED MUTATION]; experiment: Inhibition of FLT3 ITD mutant in human MV4-11 cells assessed as inhibition of ERK phosphorylation at 25 to 50 uM incubated for 2 hrs by immunoblotting analysis; format: cell-based; details: dose microM 25-50, time 2.0 hrs
[27] = tested on: Receptor-type tyrosine-protein kinase FLT3 (Homo sapiens), P36888 [UNDEFINED MUTATION]; experiment: Inhibition of FLT3 ITD mutant in human MV4-11 cells assessed as inhibition of STAT5 phosphorylation at 25 to 50 uM incubated for 2 hrs by immunoblotting analysis; format: cell-based; details: dose microM 25-50, time 2.0 hrs
[28] = molecular target: Receptor-type tyrosine-protein kinase FLT3 (Homo sapiens) (UniProt P36888); experiment: Inhibition of FLT3 (unknown origin) at 100 uM in presence of ATP relative to control

COc1ccc(/C=C/C(=O)c2ccc3c(c2O)C=CC(C)(C)O3)cc1
Activity (MV4-11 [1]): inactive
Activity (MV4-11 [2]): inactive
Activity (K562 [3]): inactive
Activity (K562 [4]): inactive

O=C(/C=C/c1ccccc1)c1ccc(OCc2ccccc2)cc1
Activity (MV4-11 [1]): inactive
Activity (MV4-11 [2]): inactive
Activity (K562 [3]): inactive
Activity (K562 [4]): inactive

O=C(/C=C/c1ccc(OCc2ccccc2)cc1)c1ccccc1
Activity (MV4-11 [1]): inactive
Activity (MV4-11 [2]): inactive
Activity (K562 [3]): inactive
Activity (K562 [4]): inactive

O=C(/C=C/c1ccccc1Cl)c1ccc(OCc2ccccc2)cc1
Activity (MV4-11 [1]): inactive
Activity (MV4-11 [2]): inactive
Activity (K562 [3]): inactive
Activity (K562 [4]): inactive

COC(=O)Nc1nc2cc(C(=O)c3cccs3)ccc2[nH]1
inhibition (Tubulin (Homo sapiens) [5]): 93.5%

COc1ccc(/C=C/C(=O)c2ccc(OCc3ccccc3)cc2)c(OC)c1OC
Activity (MV4-11 [1]): inactive
Activity (MV4-11 [2]): inactive
Activity (K562 [3]): inactive
Activity (K562 [4]): inactive

C=CCOc1cc(OC)ccc1C(=O)/C=C/c1ccc(OC)cc1
GI50 (MOLM-13 [6]): 0.2 µM
GI50 (MV4-11 [7]): 0.24 µM
GI50 (THP-1): 5.4 µM
Activity (MV4-11 [1]): >95%
Activity (MV4-11 [2]): >95%
Activity (K562 [3]): >95%
Activity (K562 [4]): >95%
RatioGI50 [8]: >2
RatioGI50 [9]: >2
inhibition [10]: Active
inhibition [11]: Active
pIC50 [12]: 5.24
inhibition (Tubulin (Homo sapiens) [13]): Active
inhibition (Tubulin (Homo sapiens) [14]): Active
inhibition (Tubulin (Homo sapiens) [15]): Active
inhibition (Tubulin (Homo sapiens) [16]): Active
inhibition (Tubulin (Homo sapiens) [17]): 100%
inhibition (Tubulin (Homo sapiens) [18]): Active
inhibition (Tubulin (Homo sapiens) [19]): 75%
inhibition (Tubulin (Homo sapiens) [20]): 80%
inhibition (Tubulin (Homo sapiens) [5]): 87%
Activity (MV4-11 [21]): Active
Activity (MV4-11 [22]): Active
Activity (MV4-11 [23]): Active
GI50 (MOLM-13 [24]): 0.22 µM
RatioGI50 [25]: 1

COc1cccc(/C=C/C(=O)c2ccc(OCc3ccccc3)cc2)c1
Activity (MV4-11 [1]): inactive
Activity (MV4-11 [2]): inactive
Activity (K562 [3]): inactive
Activity (K562 [4]): inactive

O=C(/C=C/c1ccc(F)cc1)c1ccc(OCc2ccccc2)cc1
Activity (MV4-11 [1]): inactive
Activity (MV4-11 [2]): inactive
Activity (K562 [3]): inactive
Activity (K562 [4]): inactive

COc1cc2c(N3CCN(C(=O)Nc4ccc(OC(C)C)cc4)CC3)ncnc2cc1OCCCN1CCCCC1 [TANDUTINIB]
GI50 (MOLM-13 [6]): 0.052 µM
GI50 (MOLM-13 [24]): 1.9 µM
RatioGI50 [25]: 35.8

COc1ccc(C(=O)/C=C/c2ccc(OC)c(OC)c2)c(O)c1
GI50 (MOLM-13 [6]): 10 µM
GI50 (MV4-11 [7]): > 10 µM
GI50 (THP-1): > 100 µM
Activity (MV4-11 [1]): Active
Activity (MV4-11 [2]): Active
Activity (K562 [3]): Active
Activity (K562 [4]): Active
inhibition [26]: Active
inhibition [27]: Active
pIC50 [12]: 4.86

O=C(/C=C/c1ccc(Cl)cc1)c1ccc(OCc2ccccc2)cc1
Activity (MV4-11 [1]): inactive
Activity (MV4-11 [2]): inactive
Activity (K562 [3]): inactive
Activity (K562 [4]): inactive

O=C(/C=C/c1ccccc1)c1ccccc1O [2'-HYDROXYCHALCONE]
GI50 (MOLM-13 [6]): > 10 µM
GI50 (MV4-11 [7]): > 10 µM
GI50 (THP-1): > 10 µM
Activity (MV4-11 [1]): Active
Activity (MV4-11 [2]): Active
Activity (K562 [3]): Active
Activity (K562 [4]): Active
inhibition [26]: Active
inhibition [28]: 39.5%

COc1ccc(/C=C/C(=O)c2ccc(OC)cc2O)cc1
GI50 (MOLM-13 [6]): > 10 µM
GI50 (MV4-11 [7]): > 10 µM
GI50 (THP-1): > 100 µM
Activity (MV4-11 [1]): Active
Activity (MV4-11 [2]): Active
Activity (K562 [3]): Active
Activity (K562 [4]): Active
inhibition [27]: Active
